Values joined by “and” are separate entries in the source; they are usually repeats but may differ in a detail not shown here. Equal values may be shown once. Where a name gives a salt, the structure may show the parent alone. Read-outs that look alike come from different tables or passages of the source.
Assays:
[1] = molecular target: T1, yeast orotidine monophosphate decarboxylase (ScOMPDC) (Saccharomyces cerevisiae, UniProt P03962, C155S); test: Oxydianion activation of ScOMPDC-catalyzed decarboxylation of EO; type: biochemical
T1 sequence (P03962 1-267 C155S): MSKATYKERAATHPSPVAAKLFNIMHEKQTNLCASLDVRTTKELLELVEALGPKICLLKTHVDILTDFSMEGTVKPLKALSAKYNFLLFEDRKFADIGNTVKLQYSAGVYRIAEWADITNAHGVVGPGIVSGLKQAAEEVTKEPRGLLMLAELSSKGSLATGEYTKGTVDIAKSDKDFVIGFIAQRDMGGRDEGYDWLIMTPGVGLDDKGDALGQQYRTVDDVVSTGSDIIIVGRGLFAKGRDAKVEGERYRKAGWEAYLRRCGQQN

[2] = molecular target: T1, yeast orotidine monophosphate decarboxylase (ScOMPDC); conditions: cited from earlier work; for intrinsic oxydianion binding energy (ΔG^‡): ScOMPDC-catalyzed decarboxylation of EO
[3] = molecular target: T2, human liver glycerol 3-phosphate dehydrogenase (hlGPDH) (Homo sapiens, UniProt P21695); test: Oxydianion activation of hlGPDH-catalyzed reduction of GA by NADH; type: biochemical; conditions: for RT ln(K^‡)X, intrinsic Gibbs dianion binding free energy: hlGPDH-catalyzed reduction of GA
T2 sequence (P21695 1-349): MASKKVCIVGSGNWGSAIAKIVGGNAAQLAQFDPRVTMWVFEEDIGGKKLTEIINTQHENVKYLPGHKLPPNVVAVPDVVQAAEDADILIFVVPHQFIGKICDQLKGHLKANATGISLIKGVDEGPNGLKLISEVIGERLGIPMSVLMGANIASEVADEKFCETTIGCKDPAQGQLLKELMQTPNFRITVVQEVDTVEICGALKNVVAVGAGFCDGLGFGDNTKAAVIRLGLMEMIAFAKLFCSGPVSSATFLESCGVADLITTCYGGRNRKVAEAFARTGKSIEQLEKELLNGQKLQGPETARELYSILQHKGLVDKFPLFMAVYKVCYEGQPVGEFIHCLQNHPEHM

[4] = molecular target: T3, yeast triosephosphate isomerase (ScTIM) (Saccharomyces cerevisiae, UniProt P00942); test: Oxydianion activation of ScTIM-catalyzed reactions of [1-13C]-GA in D2O; type: biochemical; conditions: for RT ln(K^‡)X, intrinsic Gibbs dianion binding free energy: [1-^13C]-GA in D2O; for RT ln(K^‡)X, intrinsic Gibbs dianion binding free energy / Kd: 25 °C; for Kd: read-out: KX, dissociation constant for release of the oxydianion from ScTIM, 20 mM [1-^13C]-GA in D2O, pD 7.0 (20 mM imidazole), I = 0.1 (NaCl), fit to eq 3
T3 sequence (P00942 1-248): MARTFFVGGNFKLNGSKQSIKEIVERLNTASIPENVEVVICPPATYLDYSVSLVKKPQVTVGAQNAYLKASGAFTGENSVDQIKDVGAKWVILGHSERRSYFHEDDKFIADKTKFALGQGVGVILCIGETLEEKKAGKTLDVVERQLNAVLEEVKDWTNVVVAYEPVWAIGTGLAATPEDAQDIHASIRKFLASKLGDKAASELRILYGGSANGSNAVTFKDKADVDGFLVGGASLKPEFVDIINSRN

[5] = molecular target: T4, human liver GPDH (hlGPDH) (Homo sapiens, UniProt P21695); type: biochemical; conditions: identical plots at 0.10 or 0.20 mM NADH; printed ≪
T4 sequence (P21695 1-349): T2 sequence (P21695 1-349)

[6] = system: ScOMPDC; conditions: cited from earlier work
[7] = pH 7.5 (10 mM TEA), 25 °C, 0.2 mM NADH, I = 0.12 (NaCl)

Compound: O=C(O)c1cc(=O)n([C@@H]2OC[C@@H](O)[C@H]2O)c(=O)[nH]1 [EO, 1-(β-D-erythrofuranosyl)orotic acid]
- k′cat, turnover of the complex between enzyme and substrate pieces ([1]; EO + HPO3^2–, calculated using published (kcat/Km)E·HPi and Kd (ref 10)): ≈ 160 ^f s^–1
- Kd ([2]; read-out: Kd of truncated substrate, substrate pieces, EO + HPO3^2–): 100 mM and ~100 mM

Compound: O=CCO [GA, glycolaldehyde]
- k′cat, turnover of the complex between enzyme and substrate pieces ([3]; GA + HPO3^2–, estimated as [(kcat/Km)E·HPi]Kd): 5.5 s^–1
- kcat, unactivated reduction of GA ([3]; no dianion, 0.05 mM hlGPDH, pH 7.5, 25 °C, 0.2 mM NADH, I = 0.12 (NaCl)): 3.1 × 10^–4 s^–1
- KGA, unactivated reduction of GA ([3]; no dianion, carbonyl form of GA, pH 7.5, 25 °C, 0.2 mM NADH, I = 0.12 (NaCl)): 6.2 mM
- Kd ([3]; read-out: Kd of truncated substrate, substrate pieces, GA + HPO3^2–): 5 mM

Compound: O=[As](O)(O)O [HOAsO3^2–]
- intrinsic oxydianion binding energy (ΔG^‡) [2]: no activation detected

Compound: O=P(O)(O)O [HOPO3^2–, phosphate]
- RT ln(K^‡)X, intrinsic Gibbs dianion binding free energy ([3]; 25 °C): –4.9 kcal/mol
- (kcat)E·X, first-order rate constant for turnover of the Michaelis complex [3, 7]: 0.032 ± 0.002 s^–1
- intrinsic oxydianion binding energy (ΔG^‡) [2]: -3.0 kcal/mol

Compound: O=[PH](O)O [HPO3^2–, phosphite dianion]
- RT ln(K^‡)X, intrinsic Gibbs dianion binding free energy ([3]; 25 °C): –7.5 kcal/mol
- RT ln(K^‡)X, intrinsic Gibbs dianion binding free energy ([3]; 25 °C, listed as phosphite dianion): −7.5 kcal/mol
- (kcat)E·X, first-order rate constant for turnover of the Michaelis complex [3, 7]: 5.5 ± 0.3 s^–1
- Kd ([3]; read-out: KX, dissociation constant for release of the oxydianion from the binary or ternary enzyme complex, pH 7.5 (10 mM TEA), 25 °C, 0.2 mM NADH, I = 0.12 (NaCl)): 70 ± 4 mM
- intrinsic dianion binding energy (given without sign) ([1]; ScOMPDC): 7.7 kcal/mol
- ratio of (kcat/Km)E·X/KX to (kcat/Km)E ([1]; yeast OMPDC-catalyzed decarboxylation, substrate pieces): 4.4 × 10^5 M^–1
- intrinsic oxydianion binding energy (ΔG^‡) [2]: -7.7 kcal/mol
- intrinsic dianion binding energy (given without sign) ([4]; ScTIM): 6.3 kcal/mol
- RT ln(K^‡)X, intrinsic Gibbs dianion binding free energy ([4]; ScTIM): –6.3 kcal/mol
- RT ln(K^‡)X, intrinsic Gibbs dianion binding free energy ([4]; ScTIM, listed as phosphite dianion): −6.3 kcal/mol
- ratio of (kcat/Km)E·X/KX to (kcat/Km)E ([4]; ScTIM-catalyzed isomerization, substrate pieces): 4.4 × 10^4 M^–1
- Kd [4]: 18 ± 3 mM

Compound: NC(=O)C1=CN([C@@H]2O[C@H](COP(=O)(O)OP(=O)(O)OC[C@H]3O[C@@H](n4cnc5c(N)ncnc54)[C@H](O)[C@@H]3O)[C@@H](O)[C@H]2O)C=CC1 [NADH]
- Km [5]: < 100 µM

Compound: O=C(O)c1cc(=O)[nH]c(=O)n1[C@@H]1O[C@H](COP(=O)(O)O)[C@@H](O)[C@H]1O [OMP, Orotidine 5′-monophosphate]
- kcat, turnover of whole substrate [6]: 16 s^–1

Compound: O=S(O)(O)=S [S2O3^2–, thiosulfate dianion]
- (kcat)E·X, first-order rate constant for turnover of the Michaelis complex [3, 7]: 0.0190 ± 0.002 s^–1
- intrinsic oxydianion binding energy (ΔG^‡) [2]: -4.6 kcal/mol
- Kd [4]: 7 ± 1 mM

Compound: O=S(O)O [SO3^2–]
- intrinsic oxydianion binding energy (ΔG^‡) [2]: -8.3 kcal/mol

Compound: O=S(=O)(O)O [SO4^2–, sulfate]
- RT ln(K^‡)X, intrinsic Gibbs dianion binding free energy ([3]; 25 °C): –5.9 kcal/mol
- (kcat)E·X, first-order rate constant for turnover of the Michaelis complex [3, 7]: 0.360 ± 0.040 s^–1
- intrinsic oxydianion binding energy (ΔG^‡) [2]: -4.5 kcal/mol
